Key:
human wild type C-Raf = target: T1, human wild type C-Raf (Homo sapiens, UniProt P04049); experiment: Enzymatic assay of C-Raf kinase activity (Raf/MEK1 ATPase, coupled PK/LDH, A340); assay type: biochemical; settings: read-out: Enzyme IC50, nM C-Raf
T1 construct: made in house
Description: Test compounds are evaluated for their inhibitory activities against one or more of human wild type B-Raf, human wild type C-Raf, human B-Raf V600E, human B-Raf V600E+T529I or human B-Raf V600E+G468A. T529I is a threonine to isoleucine B-Raf gatekeeper mutation and G468A is a B-Raf secondary mutation at G1403C in exon 11. The enzymatic assays of B-Raf, C-Raf and B-Raf mutations evaluate a property of Raf and MEK1 complex, which in the presence of ATP, catalyzes an enhanced ATP hydrolysis (Rominger, et al, Arch. Biochem. Biophys. 2007, 464: 130-137; US Patent Publication No. 2006/0211073). The ADP formed is monitored by the well-known coupled PK/LDH (pyruvate kinase/lactate dehydrogenase) system in the form of NADH oxidation, which can be monitored and detected spectrophotometrically by absorbance at 340 nm (A340; for principal of the method see Schindler et al, Science, 2000, 289: 1938-1942). Raf activated MEK1 ATPase activity is a property shared by all forms of Raf proteins.
Test compounds are evaluated for their inhibitory activities against one or more of wild type B-Raf, wild type C-Raf, B-Raf V600E, B-Raf V600E+T529I and B-Raf V600E+G468A. T529I is a B-Raf gatekeeper mutation and G468A is a B-Raf secondary mutation. The enzymatic assays of B-Raf, C-Raf and B-Raf mutations evaluate a property of Raf and MEK1 complex, which in the presence of ATP, catalyzes an enhanced ATP hydrolysis (Rominger, et al, Arch. Biochem. Biophys. 2007, 464: 130-137). The ADP formed is monitored by the well-known coupled PK/LDH (pyruvate kinase/lactate dehydrogenase) system in the form of NADH oxidation, which can be monitored and detected by absorbance at 340 nm (A340; for principal of the method see Schindler et al, Science, 2000, 289: 1938-1942). Raf activated MEK1 ATPase activity is a property shared by all forms of Raf proteins. In the B-Raf wild type enzymatic assay, the reaction mixture contains 1.2 nM B-Raf, 30 nM MEK1, 1000 uM ATP, 3.5 units (per 100 ul) of PK, 5 units (per 100 ul) of LDH, 1 mM phosphoenol pyruvate (PEP), and 280 uM of NADH. In the C-Raf assay, the reaction mixture contains 0.6 nM C-Raf, 26 nM MEK1, 2000 uM ATP, and the same amount of PK, LDH, PEP and NADH as above. In the B-Raf V600E assay, the reaction mixture contains […] B-Raf V600E, 26 nM MEK1, 200 uM ATP and the same amount of PK, LDH, PEP and NADH as above. In the B-RafV600E+T529I assay, the reaction mixture contains 6.2 nM B-Raf V600E+T529I, 30 nM MEK1, 200 uM ATP and the same amount of PK, LDH, PEP and NADH as above. In the B-Raf V600E+G468A assay, the reaction mixture contains 3.5 nM B-Raf, 30 nM MEK1, 200 uM ATP and the same amount of PK, LDH, PEP and NADH as above. All assays are started by mixing the above mixture with test compound and monitoring at A340 continuously for approximately 5 hr. […] In the aforementioned assays, the enzyme constructs can be screened prior to or after cleavage of the N-terminal purification tag.

A375 cells = experiment: A375 cell proliferation assay (CellTiter-Blue/resazurin); assay type: cell-based; settings: Homo sapiens, A-375, V600E mutation, read-out: Cell Proliferation Inhibition IC50, nM A375
Description: A375 cells (catalog #CRL-1619) are obtained from the American Type Culture Collection (ATCC, Manassas, Va.). Briefly, cells are grown in DMEM High Glucose supplemented with 10% characterized fetal bovine serum (Invitrogen, Carlsbad, Calif.) and 1% Penicillin/Streptomycin/L-Glutamine at 37 degrees Celsius, 5% CO2, and 95% humidity. Cells are allowed to expand until reaching 70-95% confluency at which point they are subcultured or harvested for assay use. A serial dilution of test compound is dispensed into a 384-well black clear bottom plate in triplicate. Six hundred twenty-five cells are added per well in 50 μL complete growth medium in the 384-well plate. Plates are incubated for 67 hours at 37 degrees Celsius, 5% CO2, and 95% humidity. At the end of the incubation period, 10 μL of a 440 μM solution of resazurin (Sigma, St. Louis, Mo.) in PBS is added to each well of the plate and plates are incubated for an additional 5 hours at 37 degrees Celsius, 5% CO2, and 95% humidity. Plates are read on a Synergy2 reader (Biotek, Winooski, Vt.) using an excitation of 540 nm and an emission of 600 nm. Data is analyzed using Prism software (Graphpad, San Diego, Calif.) to calculate IC50 values.
The A375, HT-29, and Colo-205 cells (ATCC) harbor a V600E mutation.

Sk-Mel-2 cells = experiment: SK-Mel-2 cell proliferation assay (resazurin); assay type: cell-based; settings: Homo sapiens, N-Ras mutation B-Raf wild type, read-out: Cell Proliferation Inhibition IC50, nM SK-Mel-2
human wild type c-KIT = target: T2, human wild type c-KIT (Homo sapiens, UniProt P10721); experiment: Enzymatic assay of c-Kit kinase activity (poly E4Y phosphorylation, coupled PK/LDH); assay type: biochemical
T2 construct: GST (N); made in house
Source text: c-Kit is an important oncogene, and its overexpression and genetic mutations often occur in melanoma and gastrointestinal stromal tumor (GIST) patients. In the c-Kit enzymatic assay, the phosphorylation of poly E4Y by ATP catalyzed by human c-Kit is monitored spectrophotometrically. The ADP produced from the kinase reaction is coupled to pyruvate kinase/lactate dehydrogenase (PK/LDH) reactions where NAD is formed from pyruvate and NADH. NADH can be detected by absorbance at 340 nm, as described above for enzymatic assays of kinase activities of B-Raf, C-Raf and B-Raf mutations.
The assay reaction mixture includes 6 nM human wild type c-KIT, 1 mg/mL Poly (Glu,Tyr) (Sigma), 1 mM Phosphoenol-pyruvate, 280 μM NADH, 5 U/3.5 U (per 100 ul) Pyruvate Kinase/Lactate Dehydrogenase, 85 mM Tris, pH 7.5, 17 mM MgCl2, 0.0042% Triton® X-100, 0.005% BSA, 1% DMSO. Test compound is incubated with the reaction mixture for 0.5 hour before adding 200 μM ATP to start the reaction at 30° C.

HCT-116 cells = experiment: HCT-116 cell proliferation assay (resazurin); assay type: cell-based; settings: Homo sapiens, K-Ras mutation B-Raf wild type, read-out: Cell Proliferation Inhibition IC50, nM HCT-116

T1 sequence (P04049 whole entry): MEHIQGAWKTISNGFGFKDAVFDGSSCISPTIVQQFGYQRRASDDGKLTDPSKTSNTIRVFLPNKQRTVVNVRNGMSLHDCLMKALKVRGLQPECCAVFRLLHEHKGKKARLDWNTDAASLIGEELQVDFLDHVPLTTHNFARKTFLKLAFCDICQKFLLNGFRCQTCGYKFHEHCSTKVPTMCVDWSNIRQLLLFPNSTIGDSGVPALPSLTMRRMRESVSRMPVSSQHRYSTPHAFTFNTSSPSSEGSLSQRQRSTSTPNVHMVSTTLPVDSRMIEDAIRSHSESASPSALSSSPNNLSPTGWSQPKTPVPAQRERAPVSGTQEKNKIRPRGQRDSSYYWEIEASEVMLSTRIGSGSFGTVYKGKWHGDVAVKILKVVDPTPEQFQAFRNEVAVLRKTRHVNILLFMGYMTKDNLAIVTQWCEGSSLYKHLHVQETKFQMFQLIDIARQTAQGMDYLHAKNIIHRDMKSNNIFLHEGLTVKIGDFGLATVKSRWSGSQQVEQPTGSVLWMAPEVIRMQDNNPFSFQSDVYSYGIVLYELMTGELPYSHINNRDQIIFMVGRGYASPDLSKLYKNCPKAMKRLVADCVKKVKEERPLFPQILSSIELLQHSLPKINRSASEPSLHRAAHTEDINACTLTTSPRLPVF
T2 sequence (P10721 26-976): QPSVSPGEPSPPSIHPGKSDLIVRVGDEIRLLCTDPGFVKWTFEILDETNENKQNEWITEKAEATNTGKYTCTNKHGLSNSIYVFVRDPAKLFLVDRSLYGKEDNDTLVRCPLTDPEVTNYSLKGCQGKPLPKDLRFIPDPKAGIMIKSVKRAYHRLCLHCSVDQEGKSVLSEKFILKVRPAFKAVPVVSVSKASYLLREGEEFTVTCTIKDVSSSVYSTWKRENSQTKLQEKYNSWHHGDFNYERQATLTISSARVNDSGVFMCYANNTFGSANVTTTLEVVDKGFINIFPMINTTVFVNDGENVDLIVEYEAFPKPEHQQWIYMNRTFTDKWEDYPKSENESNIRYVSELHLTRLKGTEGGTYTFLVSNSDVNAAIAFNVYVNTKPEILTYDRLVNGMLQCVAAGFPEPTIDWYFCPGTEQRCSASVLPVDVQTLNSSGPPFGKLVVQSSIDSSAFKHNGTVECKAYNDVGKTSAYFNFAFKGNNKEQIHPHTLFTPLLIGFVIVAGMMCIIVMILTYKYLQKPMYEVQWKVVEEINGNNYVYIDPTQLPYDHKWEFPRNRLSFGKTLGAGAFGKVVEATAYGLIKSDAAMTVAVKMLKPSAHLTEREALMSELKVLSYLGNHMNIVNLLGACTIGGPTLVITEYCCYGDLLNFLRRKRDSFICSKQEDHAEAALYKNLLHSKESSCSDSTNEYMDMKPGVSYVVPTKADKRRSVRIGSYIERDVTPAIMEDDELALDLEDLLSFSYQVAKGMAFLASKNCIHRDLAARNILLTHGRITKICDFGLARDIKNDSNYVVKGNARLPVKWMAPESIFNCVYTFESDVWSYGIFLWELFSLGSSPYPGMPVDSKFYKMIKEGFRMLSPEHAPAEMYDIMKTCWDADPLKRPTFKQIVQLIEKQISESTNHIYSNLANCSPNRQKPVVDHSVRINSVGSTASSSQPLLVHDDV

SMILES: Cc1cc(F)c(NC(=O)NCCC(C)(C)C)cc1-c1cc2cnc(NCCO)nc2nc1C [Example 16, 1-(3,3-Dimethylbutyl)-3-[2-fluoro-5-[2-(2-hydroxyethylamino)-7-methyl-pyrido[2,3-d]pyrimidin-6-yl]-4-methyl-phenyl]urea]
- IC50 (human wild type C-Raf): < 150 nM
- IC50 (A375 cells): < 100 nM
- IC50 shift A375 to A375res (A375res cells): 0.6-1.9 fold
- IC50 (Sk-Mel-2 cells): 100 to 1000 nM
- IC50 (human wild type c-KIT): < 0.15 µM
- IC50 (HCT-116 cells): 100 to 1000 nM

SMILES: Cc1cc(F)c(NC(=O)NCCC(C)(C)C)cc1-c1cc2cnc(NCCN(C)C)nc2nc1C [Example 17, 1-[5-[2-(2-Dimethylaminoethylamino)-7-methyl-pyrido[2,3-d]pyrimidin-6-yl]-2-fluoro-4-methyl-phenyl]-3-(3,3-dimethylbutyl)urea]
- IC50 (human wild type C-Raf): < 150 nM
- IC50 (A375 cells): < 100 nM
- IC50 shift A375 to A375res (A375res cells): 0.6-1.9 fold
- IC50 (Sk-Mel-2 cells): 100 to 1000 nM
- IC50 (human wild type c-KIT): < 0.15 µM
- IC50 (HCT-116 cells): 100 to 1000 nM

SMILES: Cc1cc(F)c(NC(=O)NCCC(C)(C)C)cc1-c1cc2cnc(N)nc2nc1C [Example 20, 1-(5-(2-Amino-7-methylpyrido[2,3-d]pyrimidin-6-yl)-2-fluoro-4-methylphenyl)-3-(3,3-dimethylbutyl)urea]
- IC50 (human wild type C-Raf): < 150 nM
- IC50 (A375 cells): < 100 nM
- IC50 shift A375 to A375res (A375res cells): 0.6-1.9 fold
- IC50 (Sk-Mel-2 cells): < 100 nM
- IC50 (human wild type c-KIT): < 0.15 µM
- IC50 (HCT-116 cells): 100 to 1000 nM

SMILES: Cc1cc(F)c(NC(=O)NCCC(C)(C)C)cc1-c1cc2cnc(NCCN3CCOCC3)nc2nc1C [Example 21, 1-(3,3-Dimethylbutyl)-3-(2-fluoro-4-methyl-5-(7-methyl-2-((2-morpholinoethyl)amino)pyrido[2,3-d]pyrimidin-6-yl)phenyl)ure]
- IC50 (human wild type C-Raf): < 150 nM
- IC50 (A375 cells): < 100 nM
- IC50 shift A375 to A375res (A375res cells): 0.6-1.9 fold
- IC50 (Sk-Mel-2 cells): 100 to 1000 nM
- IC50 (human wild type c-KIT): < 0.15 µM
- IC50 (HCT-116 cells): 100 to 1000 nM

SMILES: CNc1ncc2cc(-c3cc(NC(=O)NCCC4(C)CC4)c(F)cc3C)c(C)nc2n1 [Example 24, 1-(2-Fluoro-4-methyl-5-(7-methyl-2-(methylamino)pyrido[2,3-d]pyrimidin-6-yl)phenyl)-3-(2-(1-methylcyclopropyl)ethyl)urea]
- IC50 (human wild type C-Raf): < 150 nM
- IC50 (A375 cells): < 100 nM
- IC50 shift A375 to A375res (A375res cells): 0.6-1.9 fold
- IC50 (Sk-Mel-2 cells): 100 to 1000 nM
- IC50 (human wild type c-KIT): < 0.15 µM
- IC50 (HCT-116 cells): 100 to 1000 nM

SMILES: Cc1cc(F)c(NC(=O)NCCC(C)(C)F)cc1-c1cc2cnc(NC3COC3)nc2nc1C [Example 25, 1-(3-Fluoro-3-methylbutyl)-3-(2-fluoro-4-methyl-5-(7-methyl-2-(oxetan-3-ylamino)pyrido[2,3-d]pyrimidin-6-yl)phenyl)urea]
- IC50 (human wild type C-Raf): < 150 nM
- IC50 (A375 cells): < 100 nM
- IC50 shift A375 to A375res (A375res cells): 0.6-1.9 fold
- IC50 (Sk-Mel-2 cells): 100 to 1000 nM
- IC50 (human wild type c-KIT): < 0.15 µM
- IC50 (HCT-116 cells): 100 to 1000 nM

SMILES: CCNc1ncc2cc(-c3cc(NC(=O)NCCC(C)(C)F)c(F)cc3C)c(C)nc2n1 [Example 26, 1-(5-(2-(Ethylamino)-7-methylpyrido[2,3-d]pyrimidin-6-yl)-2-fluoro-4-methylphenyl)-3-(3-fluoro-3-methylbutyl)urea]
- IC50 (human wild type C-Raf): < 150 nM
- IC50 (A375 cells): 100 to 1000 nM
- IC50 shift A375 to A375res (A375res cells): 0.6-1.9 fold
- IC50 (Sk-Mel-2 cells): 100 to 1000 nM
- IC50 (human wild type c-KIT): < 0.15 µM
- IC50 (HCT-116 cells): 1000 to 10000 nM

SMILES: CNc1ncc2cc(-c3cc(NC(=O)NCCC(C)(C)C(F)(F)F)c(F)cc3C)c(C)nc2n1 [Example 27, 1-(2-Fluoro-4-methyl-5-(7-methyl-2-(methylamino)pyrido[2,3-d]pyrimidin-6-yl)phenyl)-3-(4,4,4-trifluoro-3,3-dimethylbutyl)urea]
- IC50 (human wild type C-Raf): < 150 nM
- IC50 (A375 cells): < 100 nM
- IC50 shift A375 to A375res (A375res cells): 0.6-1.9 fold
- IC50 (Sk-Mel-2 cells): 100 to 1000 nM
- IC50 (human wild type c-KIT): < 0.15 µM
- IC50 (HCT-116 cells): 100 to 1000 nM

SMILES: Cc1cc(F)c(NC(=O)NCCC(C)(C)F)cc1-c1cc2cnc(N)nc2nc1C [Example 28, 1-(5-(2-Amino-7-methylpyrido[2,3-d]pyrimidin-6-yl)-2-fluoro-4-methylphenyl)-3-(3-fluoro-3-methylbutyl)urea]
- IC50 (human wild type C-Raf): < 150 nM
- IC50 (A375 cells): 1000 to 10000 nM
- IC50 shift A375 to A375res (A375res cells): 0.6-1.9 fold
- IC50 (Sk-Mel-2 cells): 1000 to 10000 nM
- IC50 (human wild type c-KIT): < 0.15 µM
- IC50 (HCT-116 cells): 1000 to 10000 nM

SMILES: CNc1ncc2cc(-c3cc(NC(=O)NCCC4(C(F)(F)F)CC4)c(F)cc3C)c(C)nc2n1 [Example 30, 1-(2-Fluoro-4-methyl-5-(7-methyl-2-(methylamino)pyrido[2,3-d]pyrimidin-6-yl)phenyl)-3-(2-(1-(trifluoromethyl)cyclopropyl)ethyl)urea]
- IC50 (human wild type C-Raf): < 150 nM
- IC50 (A375 cells): < 100 nM
- IC50 shift A375 to A375res (A375res cells): 0.6-1.9 fold
- IC50 (Sk-Mel-2 cells): 100 to 1000 nM
- IC50 (human wild type c-KIT): < 0.15 µM
- IC50 (HCT-116 cells): 100 to 1000 nM

SMILES: CNc1ncc2cc(-c3cc(NC(=O)NCCC(C)(C)F)c(F)cc3C)cnc2n1 [Example 34, 1-(3-Fluoro-3-methyl-butyl)-3-[2-fluoro-4-methyl-5-(2-methylaminopyrido[2,3-d]pyrimidin-6-yl)phenyl]urea]
- IC50 (human wild type C-Raf): < 150 nM
- IC50 (A375 cells): 100 to 1000 nM
- IC50 shift A375 to A375res (A375res cells): 0.6-1.9 fold
- IC50 (Sk-Mel-2 cells): 100 to 1000 nM
- IC50 (human wild type c-KIT): < 0.15 µM
- IC50 (HCT-116 cells): 100 to 1000 nM

SMILES: CNc1ncc2cc(-c3cc(NC(=O)NCCC(C)(C)C)c(F)cc3C)cnc2n1 [Example 35, 1-(3,3-Dimethylbutyl)-3-[2-fluoro-4-methyl-5-(2-methylaminopyrido[2,3-d]pyrimidin-6-yl)phenyl]urea]
- IC50 (human wild type C-Raf): < 150 nM
- IC50 (A375 cells): < 100 nM
- IC50 shift A375 to A375res (A375res cells): 0.6-1.9 fold
- IC50 (Sk-Mel-2 cells): < 100 nM
- IC50 (human wild type c-KIT): < 0.15 µM
- IC50 (HCT-116 cells): 100 to 1000 nM

Source: patent US9334267B2, “RAF inhibitor compounds” (Deciphera Pharmaceuticals, LLC, priority 2012, dated 2016)
